Laboratory results reported in PubChem BioAssay AID2060884 (Molecular Pharmacology Branch, DTP, NCI, 2025).
Values belong to the compound of their own block, whether it stands above or below them.

System: NCI-H929 complex spheroids, viability % test/control
Test: Anticancer human tumor NCI-H929 cell line growth inhibition [RAS];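 also: compound exposure lasted seven days before viability was read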;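 as to viability, T/C: 100% = DMSO vehicle control viability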
Settings: for IC50: curve of first compound; for viability, T/C: stronger effect = lower value
Summary of the method: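 Multi-cell-type spheroids: tumor cells plus HUVEC endothelial cells and mesenchymal stem cells. RAS-pathway inhibitors were combined with targeted agents, each dosed in half-log steps down from clinical Cmax, or from 10 microM when Cmax was unknown.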

IC50 (second compound 0.000949 µM): 1.88 nM | IC50 (second compound 0.003 µM): 2.18 nM | IC50 (second compound 0.00949 µM): 2 nM | IC50 (second compound 0.03 µM): < 0.949 nM | IC50 (second compound 0.0949 µM): < 0.949 nM | IC50 (second compound 0.3 µM): < 0.949 nM
SMILES: CCc1c2c(nc3ccc(O)cc13)-c1cc3c(c(=O)n1C2)COC(=O)[C@]3(O)CC + CCn1c(-c2cc(N3CCN(C)CC3)cnc2C(C)OC)c2c3cc(ccc31)-c1csc(n1)CC(NC(=O)C1CC1C)C(=O)N1CCCC(N1)C(=O)OCC(C)(C)C2
viability, T/C (second compound 0.000949 µM, first compound 0.000949 µM): 108% | viability, T/C (second compound 0.000949 µM, first compound 0.003 µM): 10.3% | viability, T/C (second compound 0.000949 µM, first compound 0.00949 µM): 1.4% | viability, T/C (second compound 0.000949 µM, first compound 0.03 µM): 2.14% | viability, T/C (second compound 0.000949 µM, first compound 0.0949 µM): 0.7% | viability, T/C (second compound 0.000949 µM, first compound 0.3 µM): 0.99% | viability, T/C (second compound 0.003 µM, first compound 0.000949 µM): 103% | viability, T/C (second compound 0.003 µM, first compound 0.003 µM): 29.6% | viability, T/C (second compound 0.003 µM, first compound 0.00949 µM): 1.69% | viability, T/C (second compound 0.003 µM, first compound 0.03 µM): 1.32% | viability, T/C (second compound 0.003 µM, first compound 0.0949 µM): 1.58% | viability, T/C (second compound 0.003 µM, first compound 0.3 µM): 1.28% | viability, T/C (second compound 0.00949 µM, first compound 0.000949 µM): 114% | viability, T/C (second compound 0.00949 µM, first compound 0.003 µM): 15.1% | viability, T/C (second compound 0.00949 µM, first compound 0.00949 µM): 1.72% | viability, T/C (second compound 0.00949 µM, first compound 0.03 µM): 1.61% | viability, T/C (second compound 0.00949 µM, first compound 0.0949 µM): 1.9% | viability, T/C (second compound 0.00949 µM, first compound 0.3 µM): 0.54% | viability, T/C (second compound 0.03 µM, first compound 0.000949 µM): 19.6% | viability, T/C (second compound 0.03 µM, first compound 0.003 µM): 2.7% | viability, T/C (second compound 0.03 µM, first compound 0.00949 µM): 1.2% | viability, T/C (second compound 0.03 µM, first compound 0.03 µM): 1.06% | viability, T/C (second compound 0.03 µM, first compound 0.0949 µM): 1.1% | viability, T/C (second compound 0.03 µM, first compound 0.3 µM): 0.6% | viability, T/C (second compound 0.0949 µM, first compound 0.000949 µM): 4.5% | viability, T/C (second compound 0.0949 µM, first compound 0.003 µM): 1.29% | viability, T/C (second compound 0.0949 µM, first compound 0.00949 µM): 1.45% | viability, T/C (second compound 0.0949 µM, first compound 0.03 µM): 0.94% | viability, T/C (second compound 0.0949 µM, first compound 0.0949 µM): 1.04% | viability, T/C (second compound 0.0949 µM, first compound 0.3 µM): 0.39% | viability, T/C (second compound 0.3 µM, first compound 0.000949 µM): 2.56% | viability, T/C (second compound 0.3 µM, first compound 0.003 µM): 1.55% | viability, T/C (second compound 0.3 µM, first compound 0.00949 µM): 0.57% | viability, T/C (second compound 0.3 µM, first compound 0.03 µM): 0.84% | viability, T/C (second compound 0.3 µM, first compound 0.0949 µM): 1.38% | viability, T/C (second compound 0.3 µM, first compound 0.3 µM): 0.4%

IC50 (second compound 0.000949 µM): 188 nM | IC50 (second compound 0.003 µM): 191 nM | IC50 (second compound 0.00949 µM): 200 nM | IC50 (second compound 0.03 µM): 57.5 nM | IC50 (second compound 0.0949 µM): < 31.6 nM | IC50 (second compound 0.3 µM): < 31.6 nM
SMILES: CC1(O)CCCC1n1c(=O)c(C(F)F)cc2cnc(NC3CCN(S(C)(=O)=O)CC3)nc21 (stereo unspecified) + CCn1c(-c2cc(N3CCN(C)CC3)cnc2C(C)OC)c2c3cc(ccc31)-c1csc(n1)CC(NC(=O)C1CC1C)C(=O)N1CCCC(N1)C(=O)OCC(C)(C)C2
viability, T/C (second compound 0.000949 µM, first compound 0.0316 µM): 109% | viability, T/C (second compound 0.000949 µM, first compound 0.1 µM): 106% | viability, T/C (second compound 0.000949 µM, first compound 0.316 µM): 3.79% | viability, T/C (second compound 0.000949 µM, first compound 1 µM): 4.11% | viability, T/C (second compound 0.000949 µM, first compound 3.16 µM): 3.8% | viability, T/C (second compound 0.000949 µM, first compound 10 µM): 0.15% | viability, T/C (second compound 0.003 µM, first compound 0.0316 µM): 103% | viability, T/C (second compound 0.003 µM, first compound 0.1 µM): 115% | viability, T/C (second compound 0.003 µM, first compound 0.316 µM): 2.16% | viability, T/C (second compound 0.003 µM, first compound 1 µM): 7.09% | viability, T/C (second compound 0.003 µM, first compound 3.16 µM): 7.23% | viability, T/C (second compound 0.003 µM, first compound 10 µM): 0.06% | viability, T/C (second compound 0.00949 µM, first compound 0.0316 µM): 113% | viability, T/C (second compound 0.00949 µM, first compound 0.1 µM): 117% | viability, T/C (second compound 0.00949 µM, first compound 0.316 µM): 4.34% | viability, T/C (second compound 0.00949 µM, first compound 1 µM): 14.1% | viability, T/C (second compound 0.00949 µM, first compound 3.16 µM): 8.7% | viability, T/C (second compound 0.00949 µM, first compound 10 µM): 0.05% | viability, T/C (second compound 0.03 µM, first compound 0.0316 µM): 72.2% | viability, T/C (second compound 0.03 µM, first compound 0.1 µM): 29.5% | viability, T/C (second compound 0.03 µM, first compound 0.316 µM): 4.66% | viability, T/C (second compound 0.03 µM, first compound 1 µM): 9.27% | viability, T/C (second compound 0.03 µM, first compound 3.16 µM): 2.06% | viability, T/C (second compound 0.03 µM, first compound 10 µM): 0.13% | viability, T/C (second compound 0.0949 µM, first compound 0.0316 µM): 6.97% | viability, T/C (second compound 0.0949 µM, first compound 0.1 µM): 4.65% | viability, T/C (second compound 0.0949 µM, first compound 0.316 µM): 3.2% | viability, T/C (second compound 0.0949 µM, first compound 1 µM): 2.92% | viability, T/C (second compound 0.0949 µM, first compound 3.16 µM): 0.85% | viability, T/C (second compound 0.0949 µM, first compound 10 µM): 0.09% | viability, T/C (second compound 0.3 µM, first compound 0.0316 µM): 3.5% | viability, T/C (second compound 0.3 µM, first compound 0.1 µM): 2.32% | viability, T/C (second compound 0.3 µM, first compound 0.316 µM): 2.57% | viability, T/C (second compound 0.3 µM, first compound 1 µM): 1.68% | viability, T/C (second compound 0.3 µM, first compound 3.16 µM): 0.72% | viability, T/C (second compound 0.3 µM, first compound 10 µM): 8.23%

IC50 (second compound 0.0316 µM): 4580 nM | IC50 (second compound 0.1 µM): 3050 nM | IC50 (second compound 0.316 µM): 3320 nM | IC50 (second compound 1 µM): 3810 nM | IC50 (second compound 3.16 µM): 2830 nM | IC50 (second compound 10 µM): 1590 nM
SMILES: CC(C)NCC(C(=O)N1CCN(c2ncnc3c2C(C)CC3O)CC1)c1ccc(Cl)cc1 (stereo unspecified) + C#Cc1c(F)ccc2cc(O)cc(-c3ncc4c(N5CC6CCC(C5)N6)nc(OCC56CCCN5CC(F)C6)nc4c3F)c12
viability, T/C (second compound 0.0316 µM, first compound 0.0316 µM): 105% | viability, T/C (second compound 0.0316 µM, first compound 0.1 µM): 105% | viability, T/C (second compound 0.0316 µM, first compound 0.316 µM): 111% | viability, T/C (second compound 0.0316 µM, first compound 1 µM): 102% | viability, T/C (second compound 0.0316 µM, first compound 3.16 µM): 66% | viability, T/C (second compound 0.0316 µM, first compound 10 µM): 16.3% | viability, T/C (second compound 0.1 µM, first compound 0.0316 µM): 96.9% | viability, T/C (second compound 0.1 µM, first compound 0.1 µM): 105% | viability, T/C (second compound 0.1 µM, first compound 0.316 µM): 109% | viability, T/C (second compound 0.1 µM, first compound 1 µM): 104% | viability, T/C (second compound 0.1 µM, first compound 3.16 µM): 48.3% | viability, T/C (second compound 0.1 µM, first compound 10 µM): 14.1% | viability, T/C (second compound 0.316 µM, first compound 0.0316 µM): 96.2% | viability, T/C (second compound 0.316 µM, first compound 0.1 µM): 101% | viability, T/C (second compound 0.316 µM, first compound 0.316 µM): 108% | viability, T/C (second compound 0.316 µM, first compound 1 µM): 106% | viability, T/C (second compound 0.316 µM, first compound 3.16 µM): 51.6% | viability, T/C (second compound 0.316 µM, first compound 10 µM): 13.6% | viability, T/C (second compound 1 µM, first compound 0.0316 µM): 98.4% | viability, T/C (second compound 1 µM, first compound 0.1 µM): 101% | viability, T/C (second compound 1 µM, first compound 0.316 µM): 108% | viability, T/C (second compound 1 µM, first compound 1 µM): 108% | viability, T/C (second compound 1 µM, first compound 3.16 µM): 58% | viability, T/C (second compound 1 µM, first compound 10 µM): 7.88% | viability, T/C (second compound 3.16 µM, first compound 0.0316 µM): 97.7% | viability, T/C (second compound 3.16 µM, first compound 0.1 µM): 103% | viability, T/C (second compound 3.16 µM, first compound 0.316 µM): 107% | viability, T/C (second compound 3.16 µM, first compound 1 µM): 106% | viability, T/C (second compound 3.16 µM, first compound 3.16 µM): 44.2% | viability, T/C (second compound 3.16 µM, first compound 10 µM): 9.12% | viability, T/C (second compound 10 µM, first compound 0.0316 µM): 94.2% | viability, T/C (second compound 10 µM, first compound 0.1 µM): 92.1% | viability, T/C (second compound 10 µM, first compound 0.316 µM): 101% | viability, T/C (second compound 10 µM, first compound 1 µM): 67.5% | viability, T/C (second compound 10 µM, first compound 3.16 µM): 21.9% | viability, T/C (second compound 10 µM, first compound 10 µM): 2.52%
